Measured values from the NIST ThermoML archive (doi:10.1016/j.jct.2018.10.015).

Experiment: xn = mol fraction of the nth substance listed
Conditions: 101.3 kPa, Liquid; for viscosity: Concentric cylinders viscometry; for mass density: Vibrating tube method

CCn1cc[n+](C)c1C.O=S(=O)([N-]S(=O)(=O)C(F)(F)F)C(F)(F)F + COC(=O)OC
Conditions | mass density [kg/m3] | viscosity [mPa·s]
293.15 K, x1 = 0.099 | 1189 | 1.706
293.15 K, x1 = 0.1994 | 1269.4 | 3.137
293.15 K, x1 = 0.298 | 1325 | 5.492
293.15 K, x1 = 0.4006 | 1368.1 | 9.266
293.15 K, x1 = 0.5003 | 1400.9 | 14.65
293.15 K, x1 = 0.5738 | 1420.8 | 20.1
293.15 K, x1 = 0.6927 | 1447.3 | 31.98
293.15 K, x1 = 0.8138 | 1469.2 | 49.28
293.15 K, x1 = 0.8951 | 1481.5 | 64.02
293.15 K, x1 = 1 | 1495.8 | 89.88
298.15 K, x1 = 0.099 | 1183 | 1.581
298.15 K, x1 = 0.1994 | 1263.8 | 2.849
298.15 K, x1 = 0.298 | 1319.6 | 4.9
298.15 K, x1 = 0.4006 | 1362.9 | 8.114
298.15 K, x1 = 0.5003 | 1395.7 | 12.58
298.15 K, x1 = 0.5738 | 1415.7 | 17.03
298.15 K, x1 = 0.6927 | 1442.3 | 26.57
298.15 K, x1 = 0.8138 | 1464.3 | 40.16
298.15 K, x1 = 0.8951 | 1476.7 | 51.6
298.15 K, x1 = 1 | 1491 | 71.34
303.15 K, x1 = 0.099 | 1177 | 1.469
303.15 K, x1 = 0.1994 | 1258.1 | 2.6
303.15 K, x1 = 0.298 | 1314.2 | 4.402
303.15 K, x1 = 0.4006 | 1357.7 | 7.169
303.15 K, x1 = 0.5003 | 1390.6 | 10.91
303.15 K, x1 = 0.5738 | 1410.6 | 14.6
303.15 K, x1 = 0.6927 | 1437.4 | 22.36
303.15 K, x1 = 0.8138 | 1459.4 | 33.22
303.15 K, x1 = 0.8951 | 1471.8 | 42.25
303.15 K, x1 = 1 | 1486.3 | 57.64
308.15 K, x1 = 0.099 | 1171 | 1.368
308.15 K, x1 = 0.1994 | 1252.4 | 2.383
308.15 K, x1 = 0.298 | 1308.8 | 3.98
308.15 K, x1 = 0.4006 | 1352.5 | 6.384
308.15 K, x1 = 0.5003 | 1385.5 | 9.555
308.15 K, x1 = 0.5738 | 1405.6 | 12.64
308.15 K, x1 = 0.6927 | 1432.4 | 19.05
308.15 K, x1 = 0.8138 | 1454.5 | 27.85
308.15 K, x1 = 0.8951 | 1467 | 35.08
308.15 K, x1 = 1 | 1481.5 | 47.26
313.15 K, x1 = 0.099 | 1164.8 | 1.276
313.15 K, x1 = 0.1994 | 1246.8 | 2.192
313.15 K, x1 = 0.298 | 1303.4 | 3.619
313.15 K, x1 = 0.4006 | 1347.3 | 5.728
313.15 K, x1 = 0.5003 | 1380.4 | 8.44
313.15 K, x1 = 0.5738 | 1400.5 | 11.05
313.15 K, x1 = 0.6927 | 1427.5 | 16.38
313.15 K, x1 = 0.8138 | 1449.7 | 23.62
313.15 K, x1 = 0.8951 | 1462.2 | 29.48
313.15 K, x1 = 1 | 1476.7 | 39.24
318.15 K, x1 = 0.099 | 1158.7 | 1.193
318.15 K, x1 = 0.1994 | 1241.2 | 2.023
318.15 K, x1 = 0.298 | 1298 | 3.308
318.15 K, x1 = 0.4006 | 1342.1 | 5.173
318.15 K, x1 = 0.5003 | 1375.3 | 7.511
318.15 K, x1 = 0.5738 | 1395.5 | 9.74
318.15 K, x1 = 0.6927 | 1422.6 | 14.24
318.15 K, x1 = 0.8138 | 1444.8 | 20.25
318.15 K, x1 = 0.8951 | 1457.4 | 25.06
318.15 K, x1 = 1 | 1472 | 33
323.15 K, x1 = 0.099 | 1152.5 | 1.114
323.15 K, x1 = 0.1994 | 1235.5 | 1.87
323.15 K, x1 = 0.298 | 1292.7 | 3.037
323.15 K, x1 = 0.4006 | 1336.9 | 4.699
323.15 K, x1 = 0.5003 | 1370.2 | 6.73
323.15 K, x1 = 0.5738 | 1390.5 | 8.649
323.15 K, x1 = 0.6927 | 1417.6 | 12.48
323.15 K, x1 = 0.8138 | 1440 | 17.52
323.15 K, x1 = 0.8951 | 1452.6 | 21.53
323.15 K, x1 = 1 | 1467.2 | 28.05
328.15 K, x1 = 0.099 | 1146.3 | 1.042
328.15 K, x1 = 0.1994 | 1230 | 1.737
328.15 K, x1 = 0.298 | 1287.3 | 2.802
328.15 K, x1 = 0.4006 | 1331.7 | 4.286
328.15 K, x1 = 0.5003 | 1365.2 | 6.083
328.15 K, x1 = 0.5738 | 1385.5 | 7.757
328.15 K, x1 = 0.6927 | 1412.7 | 11.06
328.15 K, x1 = 0.8138 | 1435.1 | 15.34
328.15 K, x1 = 0.8951 | 1447.8 | 18.72
328.15 K, x1 = 1 | 1462.4 | 24.16
